Experimental data: US8673617B2, “Culture medium for Haemophilus influenzae type B” (Sanofi Pasteur SA, priority 2007, dated 2014)

Test system: Haemophilus influenzae serotype b
Test: PRP production in liquid casein hydrolysate (HAC) medium with increasing hemin (sandwich ELISA on supernatant)
Format: cell-based
Conditions: for Mean PRP / PRP in mg/l Assay 1 / PRP in mg/l Assay 2: HAC medium, 16 h
Procedure: The production of PRP obtained after 16 hours of bacterial culture in liquid plant peptones-based culture media in which the heme source was either hemin or protoporphyrin IX of animal origin (porcine protoporphyrin) in disodium salt form, or protoporphyrin IX of purely synthetic origin in disodium salt form was compared. The hemin and protoporphyrin IX concentration ranges in the culture media varied from about 0.010 g/l to about 2 g/l so as to obtain PRP titration curves as a function of the heme source tested and as a function of the plant peptone tested. An enzymatic hydrolysate of garden pea peptone provided by Kerry (Hy pea 7404) and a wheat peptone provided by Organotechnie (19559) were tested at a concentration in the culture medium equivalent to 0.87 g/l of protein nitrogen. By reference to the current methods for the production of PRP, PRP production was also measured in a medium that contains a peptone of animal origin, such as casein hydrolysate (HAC) provided by Solabia at a concentration in the medium equivalent to 0.87 g/l with increased concentrations of hemin (see table III).
1.1) Preparation of the Media • 1.1.1. Stock solution of β-NAD (Fluka) at 1 g/l in water which was ultrafiltered and then sterilized by filtration through 0.22 μm. • 1.1.2. Stock solution of hemin (Sigma) at 0.25 g/l in water was ultrafiltered, comprising 5 ml of 25% aqueous ammonia (Cooper) to aid dissolution. The stock solution was sterilized by filtration through 0.22 μm. • 1.1.3. Stock solution of porcine protoporphyrin IX (Sigma) at 0.25 g/l in ultrafiltered water comprising 5 ml of 25% aqueous ammonia (Cooper) in order to facilitate the dissolution. The stock solution was sterilized by filtration through 0.22 μm. • 1.1.4. Stock solution of synthetic protoporphyrin IX at 0.25 g/l in ultrafiltered water comprising 5 ml of 25% aqueous ammonia (Cooper) in order to facilitate the dissolution. The stock solution was also heated to 80° C. in a water bath with stirring in order to complete the dissolution before being sterilized by filtration through 0.22 μm. The protoporphyrin IX, in disodium salt form, was synthesized according to the method described in the U.S. provisional patent application Ser. No. 12/057,574, filed Mar. 28, 2008 and application Ser. No. 60/943,735 and filed on Jun. 13, 2007 using the steps which are described in scheme 2. • The stock solutions of hemin and protoporphyrin IX were checked for their respective contents of active compounds after sterilizing filtration. The protoporphyrin IX and hemin contents were determined by Reversed Phase High Performance Liquid Chromatography (RP-HPLC). The chromatographic chain comprises a twin head pump module allowing the formation of a binary gradient, a programmable automatic injector, a diode array UV detector and a chromatographic column of the type Synergi 4 μm, Polar RP-80A (150×4.6) mm, ref 00F-4336-E0, Phenomenex. • The stock solution of hemin (Sigma) to be checked after filtration was diluted ⅓ in distilled water. The stock solutions of porcine protoporphyrin IX (Sigma) and of synthetic protoporphyrin IX to be checked after filtration were diluted ¼ in distilled water. In parallel, a calibration series was prepared in ammoniated water ranging from 0.025 g/l to 0.125 g/l of protoporphyrin IX from porcine protoporphyrin IX from Sigma (ref: 25838-5) and a calibration series ranging from 0.050 g/l to 0.150 g/l of hemin from hemin from Sigma (ref: H5533-256). The samples to be checked and the various solutions of the calibration series were injected in a volume of 20 μl (for the hemin solutions and samples) and of 5 μl (for the protoporphyrin IX solutions and samples). The initial mobile phase consisting of a volume for volume mixture of acetonitrile and 10 mM KH2PO4 pH 2.5 is set at a flow rate of 1 ml/min. A discontinuous gradient was then produced from this mobile phase in order to separate the molecules of interest which are detected at a wavelength of 400 nm. […]

In the case of `C=CC1=C(C)c2cc3[n-]c(cc4nc(cc5[n-]c(cc1n2)c(C)c5CCC(=O)O)C(CCC(=O)O)=C4C)c(C)c3C=C.[Cl-].[Fe+3]` [Hemin, hemin, reference compound], the “Mean PRP” value (hemin 11.8 μg/l) is reported as 16.8 mg/L, the “PRP in mg/l Assay 1” value (hemin 11.8 μg/l) is reported as 18.9 mg/L and the “PRP in mg/l Assay 2” value (hemin 11.8 μg/l) is reported as 14.7 mg/L. For the same molecule, the “Mean PRP” value (hemin 59 μg/l) was 80.2 mg/L, the “PRP in mg/l Assay 1” value (hemin 59 μg/l) was 82.7 mg/L and the “PRP in mg/l Assay 2” value (hemin 59 μg/l) was 77.7 mg/L. For the same molecule, the “Mean PRP” value (hemin 118 μg/l) was 199.5 mg/L, the “PRP in mg/l Assay 1” value (hemin 118 μg/l) was 183 mg/L and the “PRP in mg/l Assay 2” value (hemin 118 μg/l) was 216 mg/L. For the same molecule, the “Mean PRP” value (hemin 295 μg/l) was 314.5 mg/L, the “PRP in mg/l Assay 1” value (hemin 295 μg/l) was 325 mg/L and the “PRP in mg/l Assay 2” value (hemin 295 μg/l) was 304 mg/L. For the same molecule, the “Mean PRP” value (hemin 590 μg/l) was 410.5 mg/L, the “PRP in mg/l Assay 1” value (hemin 590 μg/l) was 381 mg/L and the “PRP in mg/l Assay 2” value (hemin 590 μg/l) was 440 mg/L. For the same molecule, the “Mean PRP” value (hemin 1180 μg/l) was 414.5 mg/L, the “PRP in mg/l Assay 1” value (hemin 1180 μg/l) was 424 mg/L and the “PRP in mg/l Assay 2” value (hemin 1180 μg/l) was 405 mg/L. For the same molecule, the “Mean PRP” value (hemin 1770 μg/l) was 461.5 mg/L, the “PRP in mg/l Assay 1” value (hemin 1770 μg/l) was 404 mg/L and the “PRP in mg/l Assay 2” value (hemin 1770 μg/l) was 519 mg/L. For the same molecule, the “Mean PRP” value (hemin 2360 μg/l) was 464.5 mg/L, the “PRP in mg/l Assay 1” value (hemin 2360 μg/l) was 439 mg/L and the “PRP in mg/l Assay 2” value (hemin 2360 μg/l) was 490 mg/L. For the same molecule, the “hemin concentration to obtain about 400 mg/l of PRP” value (casein hydrolysate and hemin-based medium) was “at least 500 μg/l”.
